biological target: T1, human M4 muscarinic acetylcholine receptor (Homo sapiens, UniProt P08173); experiment: human FLIPR-based M4 PAM assay (Ca2+ mobilization, CHO-K1 cells with human M4 receptor and Gαqi5); format: cell-based; conditions: acetylcholine at 20% of maximum response, read-out: M4 PAM IP
T1 construct: expressed in transfected cells; host or cells: CHO-K1
T1 sequence (P08173 1-479): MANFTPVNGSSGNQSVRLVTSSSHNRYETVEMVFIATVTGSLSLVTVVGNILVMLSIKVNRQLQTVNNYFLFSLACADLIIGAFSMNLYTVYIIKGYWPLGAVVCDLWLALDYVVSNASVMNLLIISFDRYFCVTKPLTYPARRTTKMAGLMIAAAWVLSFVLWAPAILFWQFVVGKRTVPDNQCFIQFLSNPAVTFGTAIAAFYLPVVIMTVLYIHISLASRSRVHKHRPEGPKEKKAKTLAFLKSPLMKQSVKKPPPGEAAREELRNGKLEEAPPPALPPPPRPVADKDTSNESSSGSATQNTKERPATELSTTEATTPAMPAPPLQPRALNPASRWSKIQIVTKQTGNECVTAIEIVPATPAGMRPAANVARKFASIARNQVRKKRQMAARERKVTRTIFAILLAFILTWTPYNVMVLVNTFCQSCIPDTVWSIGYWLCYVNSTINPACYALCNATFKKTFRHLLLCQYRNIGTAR
Method in brief: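 CHO-K1 cells stably expressing human M4 and chimeric Gαqi5 were dye-loaded ~1 h at 37 °C and read for Ca2+ fluorescence. Compound followed by acetylcholine at an EC20 (sometimes an EC70 third addition); inflection point from a 4-parameter logistic fit.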

Row | Compound | EC50
1 | Cc1c(N2CC[C@H](OCC3(C)CC3)[C@@H](F)C2)nc2c(c1C)C(=O)N(CCO)C2 [Example 266G, 2-((3S,4S)-3-fluoro-4-((1-methylcyclopropyl)methoxy)piperidin-1-yl)-6-(2-hydroxyethyl)-3,4-dimethyl-6,7-dihydro-5H-pyrrolo[3,4-b]pyridin-5-one] | 69 nM
2 | Cc1c(N2CCC(OCC3(C)CC3)CC2)nc2c(c1C)C(=O)N(CCO)C2 [Example 267, 6-(2-hydroxyethyl)-3,4-dimethyl-2-(4-((1-methylcyclopropyl)methoxy)piperidin-1-yl)-6,7-dihydro-5H-pyrrolo[3,4-b]pyridin-5-one] | 34 nM
3 | CCc1cc2c(nc1N1CCC(Oc3ccc4c(c3)COCC4)CC1)CN(CCO)C2=O [Example 267A, 3-ethyl-6-(2-hydroxyethyl)-2-(4-(isochroman-7-yloxy)piperidin-1-yl)-6,7-dihydro-5H-pyrrolo[3,4-b]pyridin-5-one] | 102 nM
4 | Cc1c(N2CCC(OCC3CCC3)CC2)nc2c(c1C)C(=O)N(CCO)C2 [Example 267B, 2-(4-(cyclobutylmethoxy)piperidin-1-yl)-6-(2-hydroxyethyl)-3,4-dimethyl-6,7-dihydro-5H-pyrrolo[3,4-b]pyridin-5-one] | 80 nM
5 | CO[C@@H]1Cc2ccc(OC3CCN(c4nc5c(c(C)c4C)C(=O)N(CCO)C5)CC3)cc2C1 [Example 267C, (R)-6-(2-hydroxyethyl)-2-(4-((2-methoxy-2,3-dihydro-1H-inden-5-yl)oxy)piperidin-1-yl)-3,4-dimethyl-6,7-dihydro-5H-pyrrolo[3,4-b]pyridin-5-one] | 109 nM
6 | CO[C@H]1Cc2ccc(OC3CCN(c4nc5c(c(C)c4C)C(=O)N(CCO)C5)CC3)cc2C1 [Example 267D, (S)-6-(2-hydroxyethyl)-2-(4-((2-methoxy-2,3-dihydro-1H-inden-5-yl)oxy)piperidin-1-yl)-3,4-dimethyl-6,7-dihydro-5H-pyrrolo[3,4-b]pyridin-5-one] | 87 nM
7 | Cc1cc2c(nc1N1CC[C@@H](Oc3ccc4c(cnn4C)c3)[C@@H](F)C1)CN(CCO)C2=O [Example 267E, 2-((3S,4R)-3-fluoro-4-((1-methyl-1H-indazol-5-yl)oxy)piperidin-1-yl)-6-(2-hydroxyethyl)-3-methyl-6,7-dihydro-5H-pyrrolo[3,4-b]pyridin-5-one] | 69 nM
8 | Cc1c(N2CC[C@@H](OCC3(C)CC3)[C@H](F)C2)nc2c(c1C)C(=O)N(CCO)C2 [Example 267F, 2-((3R,4R)-3-fluoro-4-((1-methylcyclopropyl)methoxy)piperidin-1-yl)-6-(2-hydroxyethyl)-3,4-dimethyl-6,7-dihydro-5H-pyrrolo[3,4-b]pyridin-5-one] | 17 nM
9 | CCc1cc2c(nc1N1CCC(OCC3(C)CC3)CC1)CN(CCO)C2=O [Example 268, 3-ethyl-6-(2-hydroxyethyl)-2-(4-((1-methylcyclopropyl)methoxy)piperidin-1-yl)-6,7-dihydro-5H-pyrrolo[3,4-b]pyridin-5-one] | 87 nM
10 | CCc1cc2c(nc1N1CCC(Oc3ccc4cnn(C)c4c3)CC1)CN(CCO)C2=O [Example 268A, 3-ethyl-6-(2-hydroxyethyl)-2-(4-((1-methyl-1H-indazol-6-yl)oxy)piperidin-1-yl)-6,7-dihydro-5H-pyrrolo[3,4-b]pyridin-5-one] | 169 nM
11 | Cc1c(N2CCC(Oc3ccc4c(c3)COCC4)CC2)nc2c(c1C)C(=O)N(CCO)C2 [Example 268B, 6-(2-hydroxyethyl)-2-(4-(isochroman-7-yloxy)piperidin-1-yl)-3,4-dimethyl-6,7-dihydro-5H-pyrrolo[3,4-b]pyridin-5-one] | 63 nM
12 | Cc1cc2c(nc1N1CCC(Oc3ccc4c(c3)COC4)CC1)CN([C@H](C)CO)C2=O [Example 268C, (R)-2-(4-((1,3-dihydro-2-benzofuran-5-yl)oxy)piperidin-1-yl)-6-(1-hydroxypropan-2-yl)-3-methyl-6,7-dihydro-5H-pyrrolo[3,4-b]pyridin-5-one] | 53 nM
13 | Cc1cc2c(nc1N1CCC(Oc3ccc4c(c3)COC4)CC1)CN([C@@H](C)CO)C2=O [Example 268D, (S)-2-(4-((1,3-dihydro-2-benzofuran-5-yl)oxy)piperidin-1-yl)-6-(1-hydroxypropan-2-yl)-3-methyl-6,7-dihydro-5H-pyrrolo[3,4-b]pyridin-5-one] | 28 nM
14 | Cc1c(N2CC[C@@H](Oc3ccc4c(cnn4C)c3)[C@@H](F)C2)nc2c(c1C)C(=O)N(CCO)C2 [Example 268E, 2-((3S,4R)-3-fluoro-4-((1-methyl-1H-indazol-5-yl)oxy)piperidin-1-yl)-6-(2-hydroxyethyl)-3,4-dimethyl-6,7-dihydro-5H-pyrrolo[3,4-b]pyridin-5-one] | 68 nM
15 | Cc1c(N2CC[C@@H](OCC3(C)CC3)[C@@H](F)C2)nc2c(c1C)C(=O)N(CCO)C2 [Example 268F, 2-((3S,4R)-3-fluoro-4-((1-methylcyclopropyl)methoxy)piperidin-1-yl)-6-(2-hydroxyethyl)-3,4-dimethyl-6,7-dihydro-5H-pyrrolo[3,4-b]pyridin-5-one] | 39 nM
16 | COc1ccc(OC2CCN(c3nc4c(cc3C)C(=O)N(C3CC3)C4)CC2)cn1 [Example 269, 6-Cyclopropyl-2-(4-((6-methoxypyridin-3-yl)oxy)piperidin-1-yl)-3-methyl-6,7-dihydro-5H-pyrrolo[3,4-b]pyridin-5-one] | 65 nM
17 | COc1ccc(OC2CCN(c3nc4c(cc3C)C(=O)NC4CO)CC2)cn1 (stereo not shown) [Example 270, 7-(Hydroxymethyl)-2-(4-((6-methoxypyridin-3-yl)oxy)piperidin-1-yl)-3-methyl-6,7-dihydro-5H-pyrrolo[3,4-b]pyridin-5-one] | 48 nM
18 | Cc1cc2c(nc1N1CCC(Oc3ccc4c(cnn4C)c3)CC1)CN(CO)C2=O [Example 272, 6-(Hydroxymethyl)-3-methyl-2-(4-((1-methyl-1H-indazol-5-yl)oxy)piperidin-1-yl)-6,7-dihydro-5H-pyrrolo[3,4-b]pyridin-5-one] | 395 nM
19 | COc1ccc(OC2CCN(c3nc4c(cc3C)C(=O)N(C)C4(CO)CO)CC2)cn1 [Example 274, 7,7-Bis(hydroxymethyl)-2-(4-((6-methoxpyridin-3-yl)oxy)piperidin-1-yl)-3,6-dimethyl-6,7-dihydro-5H-pyrrolo[3,4-b]pyridin-5-one] | 1160 nM
20 | Cc1cc2c(nc1N1CCC(Oc3ccccc3)CC1)[C@H](CO)N(C)C2=O [Example 275, (R)-7-(hydroxymethyl)-3,6-dimethyl-2-(4-phenoxypiperidin-1-yl)-6,7-dihydro-5H-pyrrolo[3,4-b]pyridin-5-one] | 3970 nM
21 | Cc1cc2c(nc1N1CCC(Oc3ccccc3)CC1)[C@@H](CO)N(C)C2=O [Example 276, (S)-7-(hydroxymethyl)-3,6-dimethyl-2-(4-phenoxypiperidin-1-yl)-6,7-dihydro-5H-pyrrolo[3,4-b]pyridin-5-one] | 145 nM
22 | Cc1cc2c(nc1N1CC[C@@H](Oc3ccc4c(c3)COC4)[C@@H](F)C1)[C@H](CO)N(C)C2=O [Example 277, (R)-2-((3S,4R)-4-((1,3-dihydro-2-benzofuran-5-yl)oxy)-3-fluoropiperidin-1-yl)-7-(hydroxymethyl)-3,6-dimethyl-6,7-dihydro-5H-pyrrolo[3,4-b]pyridin-5-one] | 3400 nM
23 | Cc1cc2c(nc1N1CCC(Oc3cnc4c(c3)COC4)CC1)[C@H](CO)N(C)C2=O [Example 277A, (R)-2-(4-((5,7-dihydrofuro[3,4-b]pyridin-3-yl)oxy)piperidin-1-yl)-7-(hydroxymethyl)-3,6-dimethyl-6,7-dihydro-5H-pyrrolo[3,4-b]pyridin-5-one] | 30000 nM
24 | Cc1cc2c(nc1N1CC[C@@H](Oc3ccc4c(c3)COC4)[C@@H](F)C1)[C@@H](CO)N(C)C2=O [Example 278, (S)-2-((3S,4R)-4-((1,3-dihydro-2-benzofuran-5-yl)oxy)-3-fluoropiperidin-1-yl)-7-(hydroxymethyl)-3,6-dimethyl-6,7-dihydro-5H-pyrrolo[3,4-b]pyridin-5-one] | 19 nM
25 | Cc1cc2c(nc1N1CCC(Oc3cnc4c(c3)COC4)CC1)[C@@H](CO)N(C)C2=O [Example 278A, (S)-2-(4-((5,7-dihydrofuro[3,4-b]pyridin-3-yl)oxy)piperidin-1-yl)-7-(hydroxymethyl)-3,6-dimethyl-6,7-dihydro-5H-pyrrolo[3,4-b]pyridin-5-one] | 76 nM
26 | Cc1cc2c(nc1N1CCC(Oc3ccc(F)cc3)CC1)[C@@H](CO)N(C)C2=O [Example 279, (S)-2-(4-(4-fluorophenoxy)piperidin-1-yl)-7-(hydroxymethyl)-3,6-dimethyl-6,7-dihydro-5H-pyrrolo[3,4-b]pyridin-5-one] | 30 nM
27 | Cc1cc2c(nc1N1CC[C@@H](Oc3ccc4c(c3)COC4)[C@H](F)C1)[C@H](CO)N(C)C2=O [Example 279A, (R)-2-((3R,4R)-4-((1,3-dihydro-2-benzofuran-5-yl)oxy)-3-fluoropiperidin-1-yl)-7-(hydroxymethyl)-3,6-dimethyl-6,7-dihydro-5H-pyrrolo[3,4-b]pyridin-5-one] | 909 nM
28 | Cc1cc2c(nc1N1CCC(Oc3ccc(F)cc3)CC1)[C@H](CO)N(C)C2=O [Example 280, (R)-2-(4-(4-fluorophenoxy)piperidin-1-yl)-7-(hydroxymethyl)-3,6-dimethyl-6,7-dihydro-5H-pyrrolo[3,4-b]pyridin-5-one] | 438 nM
